Laboratory results published in patent US20210330611A1, “THERAPY FOR NEUROLOGICAL DISEASES/DISORDERS” (priority 2020, published 2021).
Several values for one entry are separate records, joined by “and”; a condition that tells them apart may be missing. Equal entries are not always repeated. Structures can show the parent of a compound that is named as a salt. Where two headings read alike, the source gives them in different places.

How the values were obtained:
[1] = system: fibrin-induced microglia activation; experiment: Image-based assay of fibrin-induced microglia activation (HTS and dose response); type: cell-based, rat; settings: primary microglia HTS, fibrin stimulation; for inhibition at 10 µM: Rattus norvegicus, Microglia, read-out: Fibrin % inhibition
[2] = system: LPS-induced microglia activation; experiment: Image-based assay of LPS-induced microglia activation (HTS and dose response); type: cell-based, rat; settings: for inhibition at 10 µM: Rattus norvegicus, Microglia, read-out: LPS % inhibition
[3] = system: fibrin- and LPS-induced microglia activation; experiment: cells; type: cell-based, rat
[4] = system: primary rat microglia
[5] = system: primary rat microglia; experiment: Cell toxicity (dead cells, size <150 μm2) in coated fibrin (cFib) assay; settings: primary microglia HTS;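 note: share of dead cells sized under 150 µm2 at 10 µM in fibrin-stimulated microglia HTS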
[6] = primary microglia HTS, LPS stimulation, compounds at 10 μM
[7] = quadrant by fibrin and LPS inhibition, HTS at 10 μM
[8] = fibrin assay, dead cells (size <150 μm2)
[9] = classification by fibrin and LPS inhibition, HTS at 10 μM
[10] = fibrin assay, dead cells (size <150 μm2), compounds at 10 μM
[11] = cell size >800 μm2 as marker of activation
[12] = classification by fibrin and LPS inhibition in HTS
[13] = fibrin stimulation, cell size <150 μm2 as marker of toxicity
[14] = primary microglia HTS, LPS stimulation, compounds at 10 μM, 10 µM

SMILES: CC1=NN(c2ccccc2)C(=O)C1
- Fibrin % inhibition ([1]; compounds at 10 μM): −15%
- LPS % inhibition [2, 6]: 15%
- Quadrant (FIG. 5b) [3, 7]: Q4
- LPS % cell toxicity [4]: 0%
- Fibrin % cell toxicity [5, 8]: 1%

SMILES: CN(C)CC[C@@H](c1ccc(Br)cc1)c1ccccn1
- Fibrin % inhibition ([1]; compounds at 10 μM): 0%
- LPS % inhibition [2, 6]: 10%
- Quadrant (FIG. 5b) [3, 9]: Q4
- LPS % cell toxicity [4]: 0%
- Fibrin % cell toxicity [5, 10]: 0%

SMILES: O=C(O)CN(CCN(CC(=O)O)CC(=O)O)CCN(CC(=O)O)CC(=O)O
- Fibrin % inhibition [1, 11]: 11%
- LPS % inhibition [2]: −2%
- Quadrant (FIG. 5b) [3, 12]: Q4
- LPS % cell toxicity [4]: 0%
- Fibrin % cell toxicity [5, 13]: 0%

SMILES: COc1ccc(C[C@H](N)C(=O)N[C@H]2[C@@H](O)[C@H](n3cnc4c(N(C)C)ncnc43)O[C@@H]2CO)cc1.Cl.Cl
- LPS % inhibition [2, 6]: 124%
- Quadrant (FIG. 5b) [3, 7]: Q2
- LPS % cell toxicity [4]: 52%
- Fibrin % cell toxicity [5, 8]: 66%

SMILES: CCCC(C(=O)OCCN(CC)CC)(c1ccccc1)c1ccccc1.Cl
- Fibrin % inhibition [1, 11]: −10%
- LPS % inhibition [2]: 5%
- Quadrant (FIG. 5b) [3, 12]: Q4
- LPS % cell toxicity [4]: 0%
- Fibrin % cell toxicity [5, 13]: 0%

SMILES: C[C@H](CCC(=O)[O-])[C@H]1CC[C@H]2[C@@H]3C(=O)C[C@@H]4CC(=O)CC[C@]4(C)[C@H]3CC(=O)[C@]12C.[Na+]
- Fibrin % inhibition [1, 11]: 21%
- LPS % inhibition [2]: 28%
- Quadrant (FIG. 5b) [3, 12]: Q4
- LPS % cell toxicity [4]: 1%
- Fibrin % cell toxicity [5, 13]: 1%

SMILES: Cl.NCC(O)c1ccc(O)cc1 (racemic)
- Fibrin % inhibition ([1]; compounds at 10 μM): −48%
- LPS % inhibition [2, 6]: 16%
- Quadrant (FIG. 5b) [3, 7]: Q4
- LPS % cell toxicity [4]: 0%
- Fibrin % cell toxicity [5, 8]: 1%

SMILES: CCC1(c2ccc(N)cc2)CCC(=O)NC1=O (racemic)
- Fibrin % inhibition ([1]; compounds at 10 μM): 3%
- LPS % inhibition [2, 6]: 6%
- Quadrant (FIG. 5b) [3, 7]: Q4
- LPS % cell toxicity [4]: 0%
- Fibrin % cell toxicity [5, 8]: 0%

SMILES: NCC(CC(=O)O)c1ccc(Cl)cc1 (racemic) [(±)-baclofen, Baclofen]
- Fibrin % inhibition ([1]; compounds at 10 μM): −8%
- LPS % inhibition [2, 6]: 9%
- Quadrant (FIG. 5b) [3, 7]: Q4
- LPS % cell toxicity [4]: 0%
- Fibrin % cell toxicity [5, 8]: 0%

SMILES: C=CC(N)CCC(=O)O (racemic) [(±)-gamma-vinyl Gaba, Vigabatrin]
- Fibrin % inhibition ([1]; compounds at 10 μM): 8%
- LPS % inhibition [2, 6]: 12%
- Quadrant (FIG. 5b) [3, 7]: Q4
- LPS % cell toxicity [4]: 0%
- Fibrin % cell toxicity [5, 8]: 1%

SMILES: NC(Cc1ccc(Cl)cc1)C(=O)O (racemic) [(±)-p-chlorophenylalanine, Fenclonine]
- Fibrin % inhibition ([1]; compounds at 10 μM): 16%
- LPS % inhibition [2, 6]: 5%
- Quadrant (FIG. 5b) [3, 7]: Q4
- LPS % cell toxicity [4]: 0%
- Fibrin % cell toxicity [5, 8]: 1%

SMILES: O=c1cc[nH]c(=S)[nH]1 [2-thiouracil]
- inhibition at 10 µM ([1]; compounds at 10 μM): -15%
- inhibition at 10 µM [2, 6]: 7%
- Quadrant (FIG. 5b) [3, 7]: Q4
- LPS % cell toxicity ([4]; rat): 0%
- Fibrin % cell toxicity [5, 8]: 1%

SMILES: CC(O)(CC(=O)O)CC(=O)O [3-Hydroxy-3-Methyl-Glutaric Acid]
- inhibition at 10 µM ([1]; compounds at 10 μM): 9%
- inhibition at 10 µM [2, 6]: 8%
- Quadrant (FIG. 5b) [3, 7]: Q4
- LPS % cell toxicity ([4]; rat): 0%
- Fibrin % cell toxicity [5, 8]: 0%

SMILES: CC(=O)Nc1cccc(O)c1 [3-acetamidophenol]
- inhibition at 10 µM ([1]; compounds at 10 μM): 4%
- inhibition at 10 µM [2, 6]: 5%
- Quadrant (FIG. 5b) [3, 7]: Q4
- LPS % cell toxicity ([4]; rat): 0%
- Fibrin % cell toxicity [5, 8]: 1%

SMILES: Nc1ccc(C(=O)O)cc1 [4-Aminobenzoic Acid]
- inhibition at 10 µM ([1]; compounds at 10 μM): -31%
- inhibition at 10 µM [2, 6]: 13%
- Quadrant (FIG. 5b) [3, 7]: Q4
- LPS % cell toxicity ([4]; rat): 1%
- Fibrin % cell toxicity [5, 8]: 1%

SMILES: CC(=O)Nc1ccc(C(=O)O)cc1 [4-acetamidobenzoic acid]
- inhibition at 10 µM ([1]; compounds at 10 μM): 32%
- inhibition at 10 µM [2, 6]: 42%
- Quadrant (FIG. 5b) [3, 7]: Q4
- LPS % cell toxicity ([4]; rat): 0%
- Fibrin % cell toxicity [5, 8]: 1%

SMILES: Nc1nc(NC2CC2)c2ncn([C@H]3C=C[C@@H](CO)C3)c2n1 [Abacavir Sulfate]
- inhibition at 10 µM ([1]; compounds at 10 μM): -2%
- inhibition at 10 µM [2, 6]: 3%
- Quadrant (FIG. 5b) [3, 7]: Q4
- LPS % cell toxicity ([4]; rat): 0%
- Fibrin % cell toxicity [5, 8]: 1%

SMILES: CC(=O)NCCCS(=O)(=O)[O-].CC(=O)NCCCS(=O)(=O)[O-].[Ca+2] [Acamprosate Calcium]
- Fibrin % inhibition ([1]; compounds at 10 μM): 12%
- LPS % inhibition [2, 6]: 22%
- Quadrant (FIG. 5b) [3, 7]: Q4
- LPS % cell toxicity [4]: 0%
- Fibrin % cell toxicity [5, 8]: 1%

SMILES: CC(=O)OC1CN2CCC1CC2.Cl (stereo not drawn) [Aceclidine Hydrochloride, Aceclidine]
- Fibrin % inhibition ([1]; compounds at 10 μM): 2%
- LPS % inhibition [2, 6]: 0%
- Quadrant (FIG. 5b) [3, 7]: Q4
- LPS % cell toxicity [4]: 0%
- Fibrin % cell toxicity [5, 8]: 1%

SMILES: CC(=O)NC(CCC(N)=O)C(=O)O (stereo not drawn) [Aceglutamide]
- inhibition at 10 µM ([1]; compounds at 10 μM): 36%
- inhibition at 10 µM [2, 6]: 20%
- Quadrant (FIG. 5b) [3, 7]: Q4
- LPS % cell toxicity ([4]; rat): 0%
- Fibrin % cell toxicity [5, 8]: 1%

SMILES: COc1ccc2c(c1)c(CC(=O)OCC(=O)O)c(C)n2C(=O)c1ccc(Cl)cc1 [Acemetacin]
- inhibition at 10 µM ([1]; compounds at 10 μM): -16%
- inhibition at 10 µM [2, 6]: 17%
- Quadrant (FIG. 5b) [3, 7]: Q4
- LPS % cell toxicity ([4]; rat): 0%
- Fibrin % cell toxicity [5, 8]: 1%

SMILES: CC(=O)CC(c1ccc([N+](=O)[O-])cc1)c1c(O)c2ccccc2oc1=O (stereo not drawn) [Acenocoumarol, Acenocoumarin]
- Fibrin % inhibition ([1]; compounds at 10 μM): −38%
- LPS % inhibition [2, 6]: 14%
- Quadrant (FIG. 5b) [3, 7]: Q4
- LPS % cell toxicity [4]: 0%
- Fibrin % cell toxicity [5, 8]: 0%

SMILES: CC(=O)c1ccc2c(c1)N(CCCN(C)C)c1ccccc1S2 [Acepromazine]
- inhibition at 10 µM ([1]; compounds at 10 μM): 9%
- inhibition at 10 µM [2, 6]: 31%
- Quadrant (FIG. 5b) [3, 7]: Q4
- LPS % cell toxicity ([4]; rat): 1%
- Fibrin % cell toxicity [5, 8]: 1%

SMILES: CC(=O)Nc1ccc(OC(=O)c2ccccc2O)cc1 [Acetaminosalol]
- inhibition at 10 µM ([1]; compounds at 10 μM): -15%
- inhibition at 10 µM [2, 6]: 20%
- Quadrant (FIG. 5b) [3, 7]: Q4
- LPS % cell toxicity ([4]; rat): 1%
- Fibrin % cell toxicity [5, 8]: 1%

SMILES: CC(=O)Nc1cc([As](=O)(O)O)ccc1O [Acetarsol]
- inhibition at 10 µM ([1]; compounds at 10 μM): -12%
- inhibition at 10 µM [2, 6]: 13%
- Quadrant (FIG. 5b) [3, 7]: Q4
- LPS % cell toxicity ([4]; rat): 0%
- Fibrin % cell toxicity [5, 8]: 0%

SMILES: CO[C@H]1O[C@@H]2O[C@@]3(C)CC[C@H]4[C@H](C)CC[C@@H]([C@H]1C)[C@@]24OO3 [Artemether]
- LPS % inhibition [2, 14]: 0% and 4%
- Quadrant (FIG. 5b) [3, 7]: Q4
- LPS % cell toxicity ([4]; rat): 0%
- Fibrin % cell toxicity [5, 8]: 1% and 0%

SMILES: CCCCOc1ccc(C(=O)CCN2CCCCC2)cc1 [Dyclonine]
- LPS % inhibition [2, 14]: 12% and 5%
- Quadrant (FIG. 5b) [3, 9]: Q4
- LPS % cell toxicity ([4]; rat): 0%
- Fibrin % cell toxicity [5, 10]: 1%

SMILES: CCOC(=O)c1cncn1[C@H](C)c1ccccc1 [Etomidate]
- Fibrin % inhibition ([1]; compounds at 10 μM, 10 µM): −19% and −24%
- Quadrant (FIG. 5b) [3, 9]: Q4
- LPS % cell toxicity ([4]; rat): 0%
- Fibrin % cell toxicity [5, 10]: 0%

SMILES: COc1ccccc1OCC(O)CN1CCN(CC(=O)Nc2c(C)cccc2C)CC1 (stereo not drawn) [Ranolazine, Ranolazine Dihydrochloride]
- LPS % inhibition [2]: 12% and 2%
- Quadrant (FIG. 5b) [3, 12]: Q4
- LPS % cell toxicity [4]: 0%
- Fibrin % cell toxicity [5, 13]: 0% and 1%

SMILES: CCN(C)C(=O)Oc1cccc([C@H](C)N(C)C)c1 [Rivastigmine]
- inhibition at 10 µM ([2]; 48 h): 5%
- Quadrant (FIG. 5b) [3, 12]: Q4
- LPS % cell toxicity ([4]; rat): 0%
- Fibrin % cell toxicity [5, 13]: 1%
